Legend:
Gram positive rods (S) = assay: MBC (minimum bactericidal concentration) test in Wash NEXT reagent; type: cell-based
Pseudomonas putida (K) = assay: as above; type: cell-based
[1] = test system: creatinine biosensor (creatinine amidohydrolase, creatinine amidinohydrolase and sarcosine oxidase); assay: Effect on enzymatic activity of a creatinine biosensor (rate of O2% decrease); type: biochemical; settings: 210 μM gentamicin, FIG. 1
Description: In FIG. 1, the effects of various concentrations of gentamicin on the enzymatic activity of a creatinine biosensor (comprising the three enzymes creatinine amidohydrolase, creatinine amidinohydrolase and sarcosine oxidase) were determined. In FIG. 2, the effects of various concentrations of propionate on the enzymatic activity of a creatinine biosensor (comprising three enzymes) were determined.
In both instances, a decreasing rate of O2% is an indicator of enzyme activity; the faster the rate of O2% decrease, the higher enzymatic activity is.

gentamicin
MBC test growth score (Gram positive rods (S); 10% preservative, 8 hour): − | MBC test growth score (Gram positive rods (S); 10% preservative, 24 hour): − | MBC test growth score (Gram positive rods (S); 10% preservative, 48 hour): − | MBC test growth score (Gram positive rods (S); 10% preservative, 72 hour): − | MBC test growth score (Gram positive rods (S); 20% preservative, 8 hour): − | MBC test growth score (Gram positive rods (S); 20% preservative, 24 hour): − | MBC test growth score (Gram positive rods (S); 20% preservative, 48 hour): − | MBC test growth score (Gram positive rods (S); 20% preservative, 72 hour): − | MBC test growth score (Gram positive rods (S); 30% preservative, 8 hour): − | MBC test growth score (Gram positive rods (S); 30% preservative, 24 hour): − | MBC test growth score (Gram positive rods (S); 30% preservative, 48 hour): − | MBC test growth score (Gram positive rods (S); 30% preservative, 72 hour): − | MBC test growth score (Gram positive rods (S); 40% preservative, 8 hour): − | MBC test growth score (Gram positive rods (S); 40% preservative, 24 hour): − | MBC test growth score (Gram positive rods (S); 40% preservative, 48 hour): − | MBC test growth score (Gram positive rods (S); 40% preservative, 72 hour): − | MBC test growth score (Gram positive rods (S); 50% preservative, 8 hour): − | MBC test growth score (Gram positive rods (S); 50% preservative, 24 hour): − | MBC test growth score (Gram positive rods (S); 50% preservative, 48 hour): − | MBC test growth score (Gram positive rods (S); 50% preservative, 72 hour): − | MBC test growth score (Gram positive rods (S); 60% preservative, 8 hour): − | MBC test growth score (Gram positive rods (S); 60% preservative, 24 hour): − | MBC test growth score (Gram positive rods (S); 60% preservative, 48 hour): − | MBC test growth score (Gram positive rods (S); 60% preservative, 72 hour): − | MBC test growth score (Gram positive rods (S); 70% preservative, 8 hour): − | MBC test growth score (Gram positive rods (S); 70% preservative, 24 hour): − | MBC test growth score (Gram positive rods (S); 70% preservative, 48 hour): − | MBC test growth score (Gram positive rods (S); 70% preservative, 72 hour): − | MBC test growth score (Gram positive rods (S); 80% preservative, 8 hour): − | MBC test growth score (Gram positive rods (S); 80% preservative, 24 hour): − | MBC test growth score (Gram positive rods (S); 80% preservative, 48 hour): − | MBC test growth score (Gram positive rods (S); 80% preservative, 72 hour): − | MBC test growth score (Gram positive rods (S); 90% preservative, 8 hour): − | MBC test growth score (Gram positive rods (S); 90% preservative, 24 hour): − | MBC test growth score (Gram positive rods (S); 90% preservative, 48 hour): − | MBC test growth score (Gram positive rods (S); 90% preservative, 72 hour): − | MBC test growth score (Gram positive rods (S); 100% preservative, 8 hour): − | MBC test growth score (Gram positive rods (S); 100% preservative, 24 hour): − | MBC test growth score (Gram positive rods (S); 100% preservative, 48 hour): − | MBC test growth score (Gram positive rods (S); 100% preservative, 72 hour): − | MBC test growth score (Pseudomonas putida (K); 10% preservative, 8 hour): − | MBC test growth score (Pseudomonas putida (K); 10% preservative, 24 hour): − | MBC test growth score (Pseudomonas putida (K); 10% preservative, 48 hour): − | MBC test growth score (Pseudomonas putida (K); 10% preservative, 72 hour): − | MBC test growth score (Pseudomonas putida (K); 20% preservative, 8 hour): − | MBC test growth score (Pseudomonas putida (K); 20% preservative, 24 hour): − | MBC test growth score (Pseudomonas putida (K); 20% preservative, 48 hour): − | MBC test growth score (Pseudomonas putida (K); 20% preservative, 72 hour): − | MBC test growth score (Pseudomonas putida (K); 30% preservative, 8 hour): − | MBC test growth score (Pseudomonas putida (K); 30% preservative, 24 hour): − | MBC test growth score (Pseudomonas putida (K); 30% preservative, 48 hour): − | MBC test growth score (Pseudomonas putida (K); 30% preservative, 72 hour): − | MBC test growth score (Pseudomonas putida (K); 40% preservative, 8 hour): − | MBC test growth score (Pseudomonas putida (K); 40% preservative, 24 hour): − | MBC test growth score (Pseudomonas putida (K); 40% preservative, 48 hour): − | MBC test growth score (Pseudomonas putida (K); 40% preservative, 72 hour): − | MBC test growth score (Pseudomonas putida (K); 50% preservative, 8 hour): − | MBC test growth score (Pseudomonas putida (K); 50% preservative, 24 hour): − | MBC test growth score (Pseudomonas putida (K); 50% preservative, 48 hour): − | MBC test growth score (Pseudomonas putida (K); 50% preservative, 72 hour): − | MBC test growth score (Pseudomonas putida (K); 60% preservative, 8 hour): − | MBC test growth score (Pseudomonas putida (K); 60% preservative, 24 hour): − | MBC test growth score (Pseudomonas putida (K); 60% preservative, 48 hour): − | MBC test growth score (Pseudomonas putida (K); 60% preservative, 72 hour): − | MBC test growth score (Pseudomonas putida (K); 70% preservative, 8 hour): − | MBC test growth score (Pseudomonas putida (K); 70% preservative, 24 hour): − | MBC test growth score (Pseudomonas putida (K); 70% preservative, 48 hour): − | MBC test growth score (Pseudomonas putida (K); 70% preservative, 72 hour): − | MBC test growth score (Pseudomonas putida (K); 80% preservative, 8 hour): − | MBC test growth score (Pseudomonas putida (K); 80% preservative, 24 hour): − | MBC test growth score (Pseudomonas putida (K); 80% preservative, 48 hour): − | MBC test growth score (Pseudomonas putida (K); 80% preservative, 72 hour): − | MBC test growth score (Pseudomonas putida (K); 90% preservative, 8 hour): − | MBC test growth score (Pseudomonas putida (K); 90% preservative, 24 hour): − | MBC test growth score (Pseudomonas putida (K); 90% preservative, 48 hour): − | MBC test growth score (Pseudomonas putida (K); 90% preservative, 72 hour): − | MBC test growth score (Pseudomonas putida (K); 100% preservative, 8 hour): − | MBC test growth score (Pseudomonas putida (K); 100% preservative, 24 hour): − | MBC test growth score (Pseudomonas putida (K); 100% preservative, 48 hour): − | MBC test growth score (Pseudomonas putida (K); 100% preservative, 72 hour): − | effect on enzymatic activity of the three enzymes in the creatinine biosensor [1]: did not inactivate enzymatic activity
